What was measured:
[1] = target: T1, Serine/threonine-protein kinase Sgk2 (Homo sapiens) (UniProt Q9HBY8); experiment: Inhibition of human SGK2 using KGSGSGRPRTSSFAEG as substrate at 1 uM in presence of 32P-ATP by Hotspot assay relative to control; values are per cent of control
T1 sequence (whole entry): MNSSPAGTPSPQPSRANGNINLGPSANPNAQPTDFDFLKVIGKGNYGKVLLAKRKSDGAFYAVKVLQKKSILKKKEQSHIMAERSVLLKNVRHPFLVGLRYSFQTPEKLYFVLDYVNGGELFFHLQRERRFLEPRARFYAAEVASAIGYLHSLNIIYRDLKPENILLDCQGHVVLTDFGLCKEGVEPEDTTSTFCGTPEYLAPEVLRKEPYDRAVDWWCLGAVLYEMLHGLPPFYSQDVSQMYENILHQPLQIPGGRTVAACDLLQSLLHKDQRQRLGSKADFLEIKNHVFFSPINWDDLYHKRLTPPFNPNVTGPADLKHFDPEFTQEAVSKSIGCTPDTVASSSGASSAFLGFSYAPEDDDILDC

[2] = target: Calcium/calmodulin-dependent protein kinase type 1D (Homo sapiens) (UniProt Q8IU85); experiment: Inhibition of human CAMK1d using KKALRRQETVDAL as substrate at 1 uM in presence of 32P-ATP by Hotspot assay relative to control; values are per cent of control
[3] = target: Glycogen synthase kinase-3 alpha (Homo sapiens) (UniProt P49840); experiment: Inhibition of human GSK3a using YRRAAVPPSPSLSRHSSPHQ(pS)EDEEE as substrate at 1 uM in presence of 32P-ATP by Hotspot assay relative to control; values are per cent of control
[4] = target: T2, Lymphokine-activated killer T-cell-originated protein kinase (Homo sapiens) (UniProt Q96KB5); experiment: Inhibition of human PBK/TOPK using myelin basic protein as substrate at 1 uM in presence of 32P-ATP by Hotspot assay relative to control; values are per cent of control
T2 sequence (whole entry): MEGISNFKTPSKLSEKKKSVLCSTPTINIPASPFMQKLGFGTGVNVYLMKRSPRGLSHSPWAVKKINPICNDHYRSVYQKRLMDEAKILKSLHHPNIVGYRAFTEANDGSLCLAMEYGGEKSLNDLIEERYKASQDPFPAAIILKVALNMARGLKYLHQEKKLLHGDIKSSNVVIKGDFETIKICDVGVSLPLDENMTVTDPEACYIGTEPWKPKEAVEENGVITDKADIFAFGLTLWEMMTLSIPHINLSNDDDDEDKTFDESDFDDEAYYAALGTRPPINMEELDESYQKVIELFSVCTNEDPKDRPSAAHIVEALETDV

[5] = target: Insulin receptor (Homo sapiens) (UniProt P06213); experiment: Inhibition of human IR using poly[Glu:Tyr] (4:1) as substrate at 1 uM in presence of 32P-ATP by Hotspot assay relative to control; values are per cent of control
[6] = target: T3, Tyrosine-protein kinase Tec (Homo sapiens) (UniProt P42680); experiment: Inhibition of human TEC using poly[Glu:Tyr] (4:1) as substrate at 1 uM in presence of 32P-ATP by Hotspot assay relative to control; values are per cent of control
T3 sequence (whole entry): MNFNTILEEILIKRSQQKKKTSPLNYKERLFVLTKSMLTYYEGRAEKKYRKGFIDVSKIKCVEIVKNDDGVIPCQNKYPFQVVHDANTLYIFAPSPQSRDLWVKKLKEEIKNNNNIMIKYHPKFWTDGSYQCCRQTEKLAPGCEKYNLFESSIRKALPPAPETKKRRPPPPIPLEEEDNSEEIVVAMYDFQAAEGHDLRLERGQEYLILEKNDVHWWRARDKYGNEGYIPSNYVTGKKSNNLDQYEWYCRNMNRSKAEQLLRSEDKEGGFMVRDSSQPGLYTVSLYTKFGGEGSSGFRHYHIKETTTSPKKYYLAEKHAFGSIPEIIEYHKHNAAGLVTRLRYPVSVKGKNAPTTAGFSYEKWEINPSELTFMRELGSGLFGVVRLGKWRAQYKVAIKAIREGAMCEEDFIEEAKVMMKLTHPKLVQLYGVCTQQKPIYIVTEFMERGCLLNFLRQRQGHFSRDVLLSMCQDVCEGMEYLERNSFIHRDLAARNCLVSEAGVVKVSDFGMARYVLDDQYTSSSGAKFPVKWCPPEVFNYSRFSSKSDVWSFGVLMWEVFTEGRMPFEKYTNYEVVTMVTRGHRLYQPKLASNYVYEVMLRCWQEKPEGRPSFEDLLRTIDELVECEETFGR

[7] = target: Proto-oncogene tyrosine-protein kinase Src (Homo sapiens) (UniProt P12931); experiment: Inhibition of human c-Src using poly[Glu:Tyr] (4:1) as substrate at 1 uM in presence of 32P-ATP by Hotspot assay relative to control; values are per cent of control
Chain of Proto-oncogene tyrosine-protein kinase Src (Homo sapiens) (P12931 2-536 limits assumed): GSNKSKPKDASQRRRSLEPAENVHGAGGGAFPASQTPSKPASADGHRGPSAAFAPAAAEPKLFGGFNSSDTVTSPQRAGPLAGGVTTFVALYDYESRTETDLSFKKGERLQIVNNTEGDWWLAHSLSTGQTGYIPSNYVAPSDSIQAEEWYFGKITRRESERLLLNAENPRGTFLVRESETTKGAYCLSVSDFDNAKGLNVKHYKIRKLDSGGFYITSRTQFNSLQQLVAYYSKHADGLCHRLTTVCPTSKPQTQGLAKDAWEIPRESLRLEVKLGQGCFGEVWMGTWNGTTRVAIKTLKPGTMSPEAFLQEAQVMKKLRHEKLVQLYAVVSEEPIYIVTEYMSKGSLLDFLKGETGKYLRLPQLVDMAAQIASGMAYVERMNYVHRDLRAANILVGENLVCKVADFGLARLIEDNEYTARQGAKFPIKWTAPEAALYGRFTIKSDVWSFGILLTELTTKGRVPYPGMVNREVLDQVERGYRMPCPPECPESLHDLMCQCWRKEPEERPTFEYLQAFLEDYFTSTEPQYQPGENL

Chain of Insulin receptor (Homo sapiens) (P06213 28-758 limits assumed): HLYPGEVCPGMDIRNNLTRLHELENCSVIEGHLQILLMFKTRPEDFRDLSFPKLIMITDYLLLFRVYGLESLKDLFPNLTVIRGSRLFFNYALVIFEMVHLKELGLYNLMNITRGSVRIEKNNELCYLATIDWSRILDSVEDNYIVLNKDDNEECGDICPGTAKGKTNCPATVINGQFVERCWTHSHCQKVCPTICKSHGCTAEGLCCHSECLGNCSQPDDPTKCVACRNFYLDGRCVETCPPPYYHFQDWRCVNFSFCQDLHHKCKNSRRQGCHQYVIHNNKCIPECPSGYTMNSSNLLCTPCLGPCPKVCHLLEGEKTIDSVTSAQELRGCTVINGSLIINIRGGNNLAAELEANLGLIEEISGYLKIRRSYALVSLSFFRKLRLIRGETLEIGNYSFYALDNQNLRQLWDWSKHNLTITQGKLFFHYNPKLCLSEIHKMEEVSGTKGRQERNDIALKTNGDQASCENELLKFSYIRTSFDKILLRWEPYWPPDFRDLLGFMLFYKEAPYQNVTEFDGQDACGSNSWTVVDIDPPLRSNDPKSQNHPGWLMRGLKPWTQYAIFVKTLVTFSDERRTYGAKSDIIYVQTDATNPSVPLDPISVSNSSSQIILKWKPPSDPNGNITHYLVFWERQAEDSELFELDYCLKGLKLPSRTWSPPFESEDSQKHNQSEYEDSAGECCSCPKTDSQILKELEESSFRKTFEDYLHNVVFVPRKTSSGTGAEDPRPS
Chain of Insulin receptor (Homo sapiens) (P06213 763-1382 limits assumed): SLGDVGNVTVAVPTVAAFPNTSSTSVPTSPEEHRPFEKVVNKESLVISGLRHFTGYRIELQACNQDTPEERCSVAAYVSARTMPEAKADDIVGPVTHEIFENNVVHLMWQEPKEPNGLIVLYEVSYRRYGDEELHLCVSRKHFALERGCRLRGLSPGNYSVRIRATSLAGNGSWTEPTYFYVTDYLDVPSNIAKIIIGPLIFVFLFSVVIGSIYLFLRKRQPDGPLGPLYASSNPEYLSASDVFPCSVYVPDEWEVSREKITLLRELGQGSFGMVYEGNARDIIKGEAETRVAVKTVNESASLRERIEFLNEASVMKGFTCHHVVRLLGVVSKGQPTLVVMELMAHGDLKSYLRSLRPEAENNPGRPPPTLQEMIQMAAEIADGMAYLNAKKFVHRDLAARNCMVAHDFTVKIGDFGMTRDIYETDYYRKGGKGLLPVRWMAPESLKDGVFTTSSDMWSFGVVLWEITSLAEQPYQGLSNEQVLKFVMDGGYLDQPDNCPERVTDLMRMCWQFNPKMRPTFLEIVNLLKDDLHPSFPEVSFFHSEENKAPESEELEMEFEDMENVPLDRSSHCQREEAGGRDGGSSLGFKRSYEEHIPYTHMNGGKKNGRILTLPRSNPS
Chain of Glycogen synthase kinase-3 alpha (Homo sapiens) (P49840 2-483 limits assumed): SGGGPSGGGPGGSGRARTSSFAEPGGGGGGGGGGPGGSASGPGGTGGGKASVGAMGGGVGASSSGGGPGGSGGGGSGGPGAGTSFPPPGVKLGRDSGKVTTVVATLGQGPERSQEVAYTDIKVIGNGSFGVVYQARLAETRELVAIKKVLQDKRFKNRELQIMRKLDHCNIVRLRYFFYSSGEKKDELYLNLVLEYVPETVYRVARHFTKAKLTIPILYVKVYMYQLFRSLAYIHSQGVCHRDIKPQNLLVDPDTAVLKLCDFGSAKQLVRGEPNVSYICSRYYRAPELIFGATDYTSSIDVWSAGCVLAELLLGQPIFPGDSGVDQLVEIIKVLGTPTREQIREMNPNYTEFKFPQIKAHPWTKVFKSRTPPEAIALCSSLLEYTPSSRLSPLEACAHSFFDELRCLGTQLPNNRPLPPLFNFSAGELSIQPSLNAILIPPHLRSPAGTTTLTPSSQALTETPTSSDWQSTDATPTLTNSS
Chain of Calcium/calmodulin-dependent protein kinase type 1D (Homo sapiens) (Q8IU85 whole entry, looked up): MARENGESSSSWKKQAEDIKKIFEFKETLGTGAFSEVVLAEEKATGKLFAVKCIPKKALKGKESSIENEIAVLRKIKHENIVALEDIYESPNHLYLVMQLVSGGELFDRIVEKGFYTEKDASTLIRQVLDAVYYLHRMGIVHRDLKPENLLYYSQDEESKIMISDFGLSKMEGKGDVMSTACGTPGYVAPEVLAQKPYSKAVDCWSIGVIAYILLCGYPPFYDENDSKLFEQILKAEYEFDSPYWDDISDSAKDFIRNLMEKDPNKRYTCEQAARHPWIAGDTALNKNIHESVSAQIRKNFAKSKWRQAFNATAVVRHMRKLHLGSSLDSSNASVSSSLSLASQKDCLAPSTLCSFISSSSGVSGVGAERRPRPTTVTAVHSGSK

SMILES | residual activity [1] [%] | residual activity [2] [%] | residual activity [3] [%] | residual activity [4] [%] | residual activity [5] [%] | residual activity [6] [%] | residual activity [7] [%]
CNC(=O)c1ccc2c(c1)ncn2-c1ccc(CC(=O)OC(C)(C)C)cc1 | 102 | 99.1 | 99.8 | 102 | 90 | 93.1 | 80
Cc1cc(-c2cnc(N)c3c(-c4ccc5scnc5c4)csc23)n(C)n1 | 87.7 | 97.8 | 99.8 | 100 | 101 | 89.7 | 37.1
CC(C)S(=O)(=O)c1ccc2nccc(Nc3ccc4scnc4c3)c2c1 | 99.9 | 99 | 92.4 | 105 | 90.4 | 99.8 | 28.3

— ChEMBL document CHEMBL5649166, “RIP3 induces apoptosis independent of pronecrotic kinase activity” (Mol Cell, 2014)
